Experimental data taken from US20200223826A1, “Glucose-6-Phosphate Dehydrogenase (G6PD)-Modulating Agents And Methods Of Treating G6PD Deficiency” (The Board of Trustees of the Leland Stanford Junior …, priority 2017, published 2020).

Columns and labels:
[1] = test system: human erythrocytes; experiment: Hemolysis of human erythrocytes under oxidative stressors; assay type: cell-based
Procedure: De-identified blood samples were obtained from the Stanford Blood Center. Erythrocytes were collected by filtering the samples through a cellulose slurry to remove platelets and leukocytes and then washed with saline. G6PD activity was measured (Beutler E. Red cell metabolism: A manual of biochemical methods (3rd edition). Grune & Stratton (1984)). […] A 5% erythrocyte suspension was pre-incubated with 1-5 μM AG1 at 4° C. overnight, which was followed by treatment with (or without) either 1 mM chloroquine (CQ) or 1 mM diamide for 3-4 hours at 37° C. (for hemolysis assay with chloroquine, the mixture was incubated under light). Then centrifugation at 1,000 rpm for 5 minutes was followed. Hemoglobin release in the supernatant was monitored by measuring absorbance at 540 nm. […] After wash, the samples were lysed with 0.1% Triton X-100 (final concentration), and the florescence was analyzed with excitation/emission at 485/525 nm. GSH measurement was determined using a Cayman glutathione assay kit (Cayman Chemicals, 703002). […] The absorbance was read at 412 nm. For storage assay, a 5% erythrocyte suspension was stored at 4° C. with and without 1 μM AG1, and hemolysis and G6PD activity were monitored every week for 28 days to examine whether AG1 improves preservation of erythrocytes over time. Protein leakage was also examined by measuring the absorbance of the supernatant of samples at 280 nm. […]

[2] = test system: zebrafish embryos; experiment: ROS levels in chloroquine-treated zebrafish embryos; assay type: in vivo; conditions: chloroquine 50 μg/ml
Procedure: Embryos were dechorinated with pronase at 24 hours post fertilization (hpf) and treated with 50 μg/ml of chloroquine and/or AG1 by directly adding the compounds to the well. For ROS measurements, embryos were incubated with compounds for 2 hours, and then the ROS detecting reagent (CM-H2DCFDA) was added at a final concentration of 500 ng/ml to the well for a total treatment time of 5 hours. One embryo was placed to each well of a black, opaque 96-well plate. The florescence was analyzed with excitation/emission at 485/525 nm. After ROS assays, embryos at about 32 hpf were pooled and lysed in buffer containing 50 mM Tris (pH 7.4), 150 mM NaCl, 1 mM EDTA, 0.1% NP-40, and protease inhibitor cocktail, which was followed by three cycles of freeze and thawing in liquid nitrogen. The lysate was centrifuged at 14,000 rpm at 4° C. for 15 minutes. Total protein concentration in the supernatants (total lysate) was determined by Bradford method. 50 μg of total lysate was loaded onto 10% SDS-PAGE gels and the protein level was examined by Western blot using anti-G6PD antibody (Abcam (G6PD: AB87230)). 10 μg of total lysate was used for enzymatic assay. 50 μg of the lysate was used to measure NADPH levels using a NADPH quantification kit (Biovision), according to the manufacturer's instructions.

[3] = target: T1, Canton G6PD in lymphocytes carrying the Canton variant (Homo sapiens, UniProt P11413, R459L); experiment: Cycloheximide chase assay in lymphocytes; assay type: cell-based; conditions: 1 μM; 24 hours following cycloheximide treatment
T1 construct: host or cells: lymphocytes from a G6PD-deficient subject
T1 sequence (P11413 2-515 R459L limits assumed): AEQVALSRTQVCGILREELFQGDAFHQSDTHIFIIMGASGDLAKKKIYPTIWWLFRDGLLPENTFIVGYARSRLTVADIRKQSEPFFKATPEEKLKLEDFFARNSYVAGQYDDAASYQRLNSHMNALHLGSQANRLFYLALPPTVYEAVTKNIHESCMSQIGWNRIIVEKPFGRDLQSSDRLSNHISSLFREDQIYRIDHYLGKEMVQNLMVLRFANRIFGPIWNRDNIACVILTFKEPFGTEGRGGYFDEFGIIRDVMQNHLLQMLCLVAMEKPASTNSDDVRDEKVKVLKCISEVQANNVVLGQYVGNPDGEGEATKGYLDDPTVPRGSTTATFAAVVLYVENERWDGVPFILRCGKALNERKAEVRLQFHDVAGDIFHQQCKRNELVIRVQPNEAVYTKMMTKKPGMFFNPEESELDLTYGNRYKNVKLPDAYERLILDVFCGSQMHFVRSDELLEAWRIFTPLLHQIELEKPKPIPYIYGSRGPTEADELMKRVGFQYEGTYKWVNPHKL
Procedure: Lymphocytes derived from a normal subject (HG 00866) and a G6PD-deficient subject carrying Canton variant in G6PD (HG 02367) were purchased from Coriell Institute and cultured in RPMI 1640 supplemented with 15% fetal bovine serum (FBS), 100 U/ml penicillin, and 100 μg/ml streptomycin. An SH-SY5Y neuroblastoma cell line was cultured in Dulbecco's Modification of Eagle's Medium/Ham's F-12 50/50 Mix supplemented with 10% FBS, 100 U/ml penicillin, and 100 μg/ml streptomycin. A G6PD-deficient subject-derived fibroblast cell line carrying Mediterranean variant and normal fibroblast cell line as control were purchased from Coriell Institute (GM 01152) and ThermoFisher Scientific (C0135C), respectively, and cultured in minimum essential medium supplemented with 15% FBS, 100 U/ml penicillin, and 100 μg/ml streptomycin. All the cell lines were maintained at 37° C. in a humidified incubator with an atmosphere of 5% of CO2 and 95% air.
50,000 cells (SH-SH5Y cells or fibroblast cells) or 100,000 cells (lymphocytes) were seeded in a 12-well plate and incubated overnight. The cells were subjected to serum starvation (50-75%) for 48 hours and treated with 50 μg/ml of cycloheximide at different time points (0-48 hours). The cells were treated with the compound (1 μM) for 48 hours together with cycloheximide. […]

[4] = target: T2, Mediterranean (S188F) G6PD (Homo sapiens, UniProt P11413, S188F); experiment: Native gel electrophoresis, dimerization of variant
T2 construct: His (pET-28a) (N, cleaved yes); made in house; host or cells: E. coli C43 (DE3)
T2 sequence (P11413 whole entry S188F): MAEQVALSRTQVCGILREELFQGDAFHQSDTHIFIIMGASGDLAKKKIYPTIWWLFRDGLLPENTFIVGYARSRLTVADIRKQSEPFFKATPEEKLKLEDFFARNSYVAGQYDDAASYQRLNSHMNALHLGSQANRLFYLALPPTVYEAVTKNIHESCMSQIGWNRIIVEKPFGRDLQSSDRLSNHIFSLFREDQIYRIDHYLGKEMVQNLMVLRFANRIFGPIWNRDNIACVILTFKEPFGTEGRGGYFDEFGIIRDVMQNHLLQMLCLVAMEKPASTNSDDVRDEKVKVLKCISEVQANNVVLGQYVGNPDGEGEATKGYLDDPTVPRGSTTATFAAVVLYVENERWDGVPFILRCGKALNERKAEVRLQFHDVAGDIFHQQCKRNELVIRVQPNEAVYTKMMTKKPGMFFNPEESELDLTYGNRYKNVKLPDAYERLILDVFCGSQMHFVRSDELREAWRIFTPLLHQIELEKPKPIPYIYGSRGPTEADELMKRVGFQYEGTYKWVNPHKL
Procedure: 200 ng of recombinant enzymes were incubated with the compound (varying in assays) for 10 minutes at room temperature. To prevent streaking and artifacts in native PAGE gel, the samples in a native state (no boiling of sample and no reducing agent in sample buffer) were electrophoresed by […]. Cross-linking assay was initiated by incubating 500 ng of recombinant enzymes in PBS with 0.1% of glutaraldehyde and different concentrations of NADP^+ (0, 10, 100, 1000 μM) or MgCl2 (0, 1, 10, 100 mM). The mixture was incubated for 10 minutes at room temperature, which was followed by the addition of 100 mM Tris (pH 8.0) at a final concentration to terminate the reaction. The samples were electrophoresed as described above.

[5] = test system: lymphocytes carrying the Canton variant; experiment: Cellular ROS measurement in lymphocytes; assay type: cell-based, human; conditions: treatment with AG1 for 24 hours
Procedure: Cells in a 96-well plate were incubated with chloromethyl-2′,7′-dichlorodihydrofluorescein diacetate (CM-H2DCFDA) at a final concentration of 5 μM in HBSS (Hank's balanced salt solution) for 30 minutes at 37° C. After wash, cells were treated with Hoechst 33342 (1:10,000 dilution, Molecular Probes) to stain nuclei and incubated for another 10 minutes at 37° C. Cells were washed in HBSS, and the florescence was analyzed with excitation/emission at 485/525 nm. Cells were subjected to serum starvation (50-75%) for 48 hours to induce oxidative stress and treated with the compound for 24 hours before measurement. The signal was normalized to nuclei staining (excitation/emission at 350/470 nm).

## SCCNCCc1c[nH]c2ccccc12 [AG1, 2-[2-(1H-indol-3-yl)ethylamino]ethanethiol]
[1]; AG1 1 μM
  chloroquine-induced hemolysis: rescued
[1]; AG1 5 μM, 5% erythrocyte suspension, 1 mM chloroquine or diamide
  extent of hemolysis: reduces the extent of hemolysis
[2]
  ROS levels: reduced
[3]
  level of Canton protein, higher relative to vehicle treatment: 48%
[4]
  dimerization of variant: promoted their dimerization
[5]
  ROS level: decreased
